Experimental data taken from patent publication US20120014912A1, “PALATABLE PHARMACEUTICAL COMPOSITION” (VERTEX PHARMACEUTICALS INCORPORATED, priority 2010, published 2012).

System: HCV
Assay: Clinical trials, antiviral activity
Format: in vivo, Hepatitis C virus

SMILES: CCC[C@H](NC(=O)[C@@H]1[C@H]2CCC[C@H]2CN1C(=O)[C@@H](NC(=O)[C@@H](NC(=O)c1cnccn1)C1CCCCC1)C(C)(C)C)C(=O)C(=O)NC1CC1 [VX-950]
- antiviral activity: has shown antiviral activity
